Calls of active or inactive are those of the source. A value given as a limit tells only on which side of the number the result lay.

Experimental findings from ChEMBL document CHEMBL1201862, “PubChem BioAssay data set” (2004) are described below.

The target of assay [1] is T1, Beta-galactosidase (Escherichia coli, UniProt Q8VNN2). In words: beta-galactosidase enzyme inhibitors and activators, dose response, artefact control for CCR6 antagonist project, biochemical, E. coli enzyme, set 3 (AID 504712). The class given is functional.
T1 sequence (Q8VNN2 whole entry): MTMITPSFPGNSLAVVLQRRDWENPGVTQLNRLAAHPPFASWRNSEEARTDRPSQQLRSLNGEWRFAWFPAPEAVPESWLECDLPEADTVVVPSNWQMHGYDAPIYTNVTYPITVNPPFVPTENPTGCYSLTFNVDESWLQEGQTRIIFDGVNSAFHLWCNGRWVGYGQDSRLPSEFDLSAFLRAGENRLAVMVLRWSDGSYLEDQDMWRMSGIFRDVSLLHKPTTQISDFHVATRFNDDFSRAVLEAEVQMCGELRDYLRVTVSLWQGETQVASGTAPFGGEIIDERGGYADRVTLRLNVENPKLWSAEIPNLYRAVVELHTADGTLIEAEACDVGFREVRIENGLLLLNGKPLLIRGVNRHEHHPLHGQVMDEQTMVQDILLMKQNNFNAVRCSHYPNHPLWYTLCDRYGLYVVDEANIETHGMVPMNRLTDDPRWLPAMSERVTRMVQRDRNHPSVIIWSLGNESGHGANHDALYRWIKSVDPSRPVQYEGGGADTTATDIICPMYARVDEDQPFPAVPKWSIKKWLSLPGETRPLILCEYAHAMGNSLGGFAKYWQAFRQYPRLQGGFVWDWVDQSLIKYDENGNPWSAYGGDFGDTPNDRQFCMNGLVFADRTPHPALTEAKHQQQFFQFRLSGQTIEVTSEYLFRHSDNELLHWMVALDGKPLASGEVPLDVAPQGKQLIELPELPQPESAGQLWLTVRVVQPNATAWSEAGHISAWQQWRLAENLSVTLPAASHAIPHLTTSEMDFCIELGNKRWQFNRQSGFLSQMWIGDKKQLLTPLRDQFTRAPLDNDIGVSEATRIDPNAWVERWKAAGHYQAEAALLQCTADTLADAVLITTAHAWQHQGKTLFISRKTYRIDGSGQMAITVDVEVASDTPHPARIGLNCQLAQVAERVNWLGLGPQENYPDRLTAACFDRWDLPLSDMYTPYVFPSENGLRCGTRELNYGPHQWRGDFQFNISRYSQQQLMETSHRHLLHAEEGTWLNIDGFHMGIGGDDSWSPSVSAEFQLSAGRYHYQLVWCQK
The nature of assay [2]: control 3'UTR Renilla luciferase suppression, dose response, counter-screen for Shn3 inhibitor project, cell-based, Clone20-Shn3RL, cherry-picked (AID 624133). The class given is functional. (In general: Counterscreens check selectivity or assay interference.)
Assay [3] deals with C-C chemokine receptor type 6 (Homo sapiens, UniProt P51684). In words: CCR6 receptor antagonists, dose response, cell-based, luminescent beta-arrestin readout (AID 504728). In kind it is functional.
C-C chemokine receptor type 6, sequence (P51684 whole entry): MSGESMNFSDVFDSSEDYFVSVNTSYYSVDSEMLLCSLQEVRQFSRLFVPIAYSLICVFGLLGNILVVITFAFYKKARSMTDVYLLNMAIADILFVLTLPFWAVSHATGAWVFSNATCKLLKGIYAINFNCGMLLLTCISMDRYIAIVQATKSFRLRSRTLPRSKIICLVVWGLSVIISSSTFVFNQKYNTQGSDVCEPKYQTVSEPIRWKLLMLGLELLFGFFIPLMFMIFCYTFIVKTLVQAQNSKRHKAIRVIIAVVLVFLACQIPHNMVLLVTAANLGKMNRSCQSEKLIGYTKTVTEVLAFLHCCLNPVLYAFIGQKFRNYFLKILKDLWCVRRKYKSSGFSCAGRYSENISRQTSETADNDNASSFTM
Assay [4] in a line: HepG2 cell cytotoxicity, dose response, cytotoxicity control for Shn3 inhibitor project, CellTiter-Glo, cherry-picked (AID 624134). In kind it is functional, cell-based.
The nature of assay [5]: Shn3 3'UTR reporter inhibitors, dose response, cell-based, Clone20 osteoblasts, firefly luciferase, cherry-picked (AID 624132).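 Also: firefly luciferase luminescence from reporter carrying the Shn3 3'UTR in osteoblasts.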 The class given is functional.
The target of a further assay is Wee1-like protein kinase (Homo sapiens, UniProt P30291). Put plainly: Dose Response Cell-based Assay for Inhibitors of Wee1 Degradation. [Related pubchem assays: 1410, 1321 ]. In kind it is functional.
Wee1-like protein kinase, sequence (P30291 whole entry): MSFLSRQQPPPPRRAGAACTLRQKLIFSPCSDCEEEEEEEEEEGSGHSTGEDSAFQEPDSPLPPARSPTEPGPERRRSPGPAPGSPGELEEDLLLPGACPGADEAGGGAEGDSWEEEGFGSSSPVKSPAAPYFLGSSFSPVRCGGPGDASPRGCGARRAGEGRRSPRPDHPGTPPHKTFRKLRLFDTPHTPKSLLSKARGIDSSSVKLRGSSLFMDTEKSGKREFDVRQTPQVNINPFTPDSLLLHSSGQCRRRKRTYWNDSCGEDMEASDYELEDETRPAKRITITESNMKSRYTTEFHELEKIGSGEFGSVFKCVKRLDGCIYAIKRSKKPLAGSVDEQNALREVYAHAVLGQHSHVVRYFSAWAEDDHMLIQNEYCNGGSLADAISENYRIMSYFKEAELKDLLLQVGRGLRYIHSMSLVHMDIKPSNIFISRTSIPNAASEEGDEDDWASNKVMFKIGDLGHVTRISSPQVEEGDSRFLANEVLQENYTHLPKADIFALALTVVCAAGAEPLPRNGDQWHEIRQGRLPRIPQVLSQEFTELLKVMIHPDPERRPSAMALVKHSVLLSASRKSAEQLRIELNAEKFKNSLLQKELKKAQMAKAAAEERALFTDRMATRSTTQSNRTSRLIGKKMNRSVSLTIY
Assay [6] deals with T2, Type-1 angiotensin II receptor (Homo sapiens, UniProt P30556).
T2 sequence (P30556 whole entry): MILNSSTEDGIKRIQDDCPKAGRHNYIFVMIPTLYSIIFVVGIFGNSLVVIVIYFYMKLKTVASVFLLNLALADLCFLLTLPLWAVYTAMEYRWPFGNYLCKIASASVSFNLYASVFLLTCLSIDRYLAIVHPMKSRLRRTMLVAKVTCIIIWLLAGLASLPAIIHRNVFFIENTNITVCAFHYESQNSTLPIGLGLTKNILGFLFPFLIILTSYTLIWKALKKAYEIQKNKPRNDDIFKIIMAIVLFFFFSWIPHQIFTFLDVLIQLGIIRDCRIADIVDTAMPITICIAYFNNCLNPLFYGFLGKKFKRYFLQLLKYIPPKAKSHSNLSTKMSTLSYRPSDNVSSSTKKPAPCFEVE
Put plainly: AT1 receptor antagonists, dose response, selectivity assay for APJ receptor antagonist project, cell-based, uHTS hits (AID 463214).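 Also: antagonist potency against angiotensin II stimulated AT1 response.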 In kind it is functional.

Assay [7] in a line: cytotoxicity in HEK-293T cells, dose response, cytotoxicity control for TCR NF-kB inhibitor project, luminescence, T-cell screen hits (AID 489026).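 Also: cells exposed to compound about 14 hours before the viability readout.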 The class given is functional, cell-based.
The target in assay [8] is T3, Heat shock factor protein 1 (Mus musculus, UniProt P38532).
T3 sequence (P38532 whole entry): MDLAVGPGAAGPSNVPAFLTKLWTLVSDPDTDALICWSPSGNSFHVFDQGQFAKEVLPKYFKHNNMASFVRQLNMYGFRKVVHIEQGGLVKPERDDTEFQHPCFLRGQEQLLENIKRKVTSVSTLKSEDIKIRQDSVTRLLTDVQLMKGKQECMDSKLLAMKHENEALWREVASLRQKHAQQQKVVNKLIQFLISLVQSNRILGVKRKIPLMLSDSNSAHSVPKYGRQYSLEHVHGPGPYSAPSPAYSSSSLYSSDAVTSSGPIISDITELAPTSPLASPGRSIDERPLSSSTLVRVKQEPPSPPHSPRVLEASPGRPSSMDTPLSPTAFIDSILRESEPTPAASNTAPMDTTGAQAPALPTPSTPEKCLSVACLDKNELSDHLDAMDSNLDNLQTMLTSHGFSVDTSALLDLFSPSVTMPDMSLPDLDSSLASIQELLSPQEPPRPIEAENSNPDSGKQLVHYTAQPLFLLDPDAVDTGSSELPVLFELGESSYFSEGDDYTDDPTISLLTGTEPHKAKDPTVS
Put plainly: inhibition of MG132-induced HSE-luciferase signal, confirmation, cell-based, NIH3T3, luminescence, dose retest (AID 2382).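 Also: NIH3T3 fibroblasts with HSF1-driven luciferase reporter stressed by proteasome inhibitor MG132; luminescence from HSF1-driven luciferase expression after 8 hours of MG132 stress.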 In kind it is functional.

The target in assay [9] is Sphingosine 1-phosphate receptor 2 (Homo sapiens, UniProt O95136). Put plainly: Dose Response Cell Based Assay for Antagonists of the S1P2 Receptor. [Related pubchem assays: 856, 736 ]. The class given is functional.
The subject of the next assay is HeLa. In words: Cytotoxicity counterscreen assay for transcriptional activators of heat shock protein 70 (Hsp70). [Related pubchem assays: 1203, 1252 ]. The class given is functional. As to conditions: Homo sapiens.
Assay [10] addresses Sphingosine 1-phosphate receptor 4 (Homo sapiens, UniProt O95977). Put plainly: Fluorescence dose response cell-based high throughput screening assay for antagonists of the Sphingosine 1-Phosphate Receptor 4 (S1P4). [Related pubchem assays: 1524 (Confirmation in triplicates.), 1510 (Primary screen.)]. In kind it is functional.
For a further assay, the system named is INS1. Put plainly: beta cell apoptosis inhibitors, cytokine rescue, dose response, luminescence, retest (AID 449756).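 Also: cell death triggered by IL-1 beta plus TNF-alpha plus IFN-gamma mixture; protective hits raise ATP signal compared with cytokine alone wells.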 The class given is functional, cell-based. The conditions noted are these: Rattus norvegicus.
The target in assay [11] is Sphingosine 1-phosphate receptor 1 (Homo sapiens, UniProt P21453). The class given is functional.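 Also: Tango beta-arrestin reporter U2OS cells stimulated with S1P near its EC80; inhibitor potency meaning antagonism of receptor activation by the natural agonist.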
Sphingosine 1-phosphate receptor 1, sequence (P21453 whole entry): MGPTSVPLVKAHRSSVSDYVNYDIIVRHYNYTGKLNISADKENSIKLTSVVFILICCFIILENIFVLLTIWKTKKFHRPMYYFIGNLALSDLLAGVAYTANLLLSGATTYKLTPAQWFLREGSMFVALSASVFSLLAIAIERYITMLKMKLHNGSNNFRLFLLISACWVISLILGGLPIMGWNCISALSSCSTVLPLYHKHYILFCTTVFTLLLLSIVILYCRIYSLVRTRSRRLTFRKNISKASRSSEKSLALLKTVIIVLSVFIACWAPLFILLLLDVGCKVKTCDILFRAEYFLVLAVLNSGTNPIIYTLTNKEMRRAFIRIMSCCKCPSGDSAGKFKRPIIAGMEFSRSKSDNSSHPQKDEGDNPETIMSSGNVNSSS
A short description of assay [12]: microbe, parasite or virus in culture. The class given is functional. As to conditions: Mycobacterium tuberculosis.
In assay [13] the target is G2/mitotic-specific cyclin-B1 (Homo sapiens, UniProt P14635). In words: Counterscreen assay for inhibitors of Wee1 degradation: dose response cell-based assay to identify inhibitors of cyclin B degradation. [Related pubchem assays: 1410, 1321 ]. The class given is functional.
G2/mitotic-specific cyclin-B1, sequence (P14635 whole entry): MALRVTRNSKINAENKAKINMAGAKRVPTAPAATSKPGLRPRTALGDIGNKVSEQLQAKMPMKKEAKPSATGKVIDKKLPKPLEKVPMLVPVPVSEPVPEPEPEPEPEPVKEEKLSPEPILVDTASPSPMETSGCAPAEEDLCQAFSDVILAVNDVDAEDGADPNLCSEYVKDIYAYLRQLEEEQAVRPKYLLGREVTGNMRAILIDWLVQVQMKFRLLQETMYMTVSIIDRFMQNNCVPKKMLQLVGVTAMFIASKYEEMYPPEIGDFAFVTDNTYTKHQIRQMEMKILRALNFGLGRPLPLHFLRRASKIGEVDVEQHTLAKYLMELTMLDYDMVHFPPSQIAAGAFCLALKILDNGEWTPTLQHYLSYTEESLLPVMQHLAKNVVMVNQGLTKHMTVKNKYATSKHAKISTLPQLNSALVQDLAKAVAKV
The target in assay [14] is T1, Beta-galactosidase. Put plainly: PubChem AID 485352. In kind it is functional.
The target in a further assay is Cytochrome P450 2D6 (Homo sapiens, UniProt P10635). In words: qHTS Assay for Inhibitors and Substrates of Cytochrome P450 2D6. [Related pubchem assays: 410 ]. The conditions noted are these: read-out: Potency. In kind it is ADME. For orientation: In qHTS, concentration-response curves come from the screen itself.
Cytochrome P450 2D6, sequence (P10635 whole entry): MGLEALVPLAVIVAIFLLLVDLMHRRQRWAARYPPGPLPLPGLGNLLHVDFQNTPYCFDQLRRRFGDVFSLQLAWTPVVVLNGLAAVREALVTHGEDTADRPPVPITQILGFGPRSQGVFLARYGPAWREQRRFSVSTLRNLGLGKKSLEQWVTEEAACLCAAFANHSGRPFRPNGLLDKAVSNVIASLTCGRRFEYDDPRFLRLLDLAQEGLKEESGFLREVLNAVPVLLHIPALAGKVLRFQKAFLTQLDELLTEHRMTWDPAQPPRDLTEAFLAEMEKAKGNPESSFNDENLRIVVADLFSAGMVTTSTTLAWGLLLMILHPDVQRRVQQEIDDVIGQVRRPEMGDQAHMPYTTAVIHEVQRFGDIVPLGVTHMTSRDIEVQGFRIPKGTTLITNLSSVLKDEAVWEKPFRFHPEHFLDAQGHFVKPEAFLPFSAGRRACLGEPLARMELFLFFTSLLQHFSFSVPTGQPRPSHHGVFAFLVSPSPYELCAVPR
The target of a further assay is Cytochrome P450 2C19 (Homo sapiens, UniProt P33261). In words: qHTS Assay for Inhibitors and Substrates of Cytochrome P450 2C19. [Related pubchem assays: 410 ]. In kind it is ADME. The conditions noted are these: read-out: Potency.
Cytochrome P450 2C19, sequence (P33261 whole entry): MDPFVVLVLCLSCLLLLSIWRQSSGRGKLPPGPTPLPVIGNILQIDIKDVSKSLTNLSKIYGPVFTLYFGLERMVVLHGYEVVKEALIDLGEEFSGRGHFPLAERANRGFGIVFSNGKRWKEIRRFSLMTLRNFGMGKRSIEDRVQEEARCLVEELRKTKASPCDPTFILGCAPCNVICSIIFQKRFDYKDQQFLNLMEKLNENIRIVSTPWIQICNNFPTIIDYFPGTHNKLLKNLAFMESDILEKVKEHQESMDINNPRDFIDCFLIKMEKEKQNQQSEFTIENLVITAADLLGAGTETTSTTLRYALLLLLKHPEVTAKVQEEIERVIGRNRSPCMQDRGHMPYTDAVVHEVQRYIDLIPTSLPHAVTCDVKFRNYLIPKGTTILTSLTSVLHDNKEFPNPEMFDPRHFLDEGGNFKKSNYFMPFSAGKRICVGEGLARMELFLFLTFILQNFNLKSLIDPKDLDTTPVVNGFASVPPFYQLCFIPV
In another assay the target is Cytochrome P450 2C9 (Homo sapiens, UniProt P11712). The conditions noted are these: Potency.
Cytochrome P450 2C9, sequence (P11712 whole entry): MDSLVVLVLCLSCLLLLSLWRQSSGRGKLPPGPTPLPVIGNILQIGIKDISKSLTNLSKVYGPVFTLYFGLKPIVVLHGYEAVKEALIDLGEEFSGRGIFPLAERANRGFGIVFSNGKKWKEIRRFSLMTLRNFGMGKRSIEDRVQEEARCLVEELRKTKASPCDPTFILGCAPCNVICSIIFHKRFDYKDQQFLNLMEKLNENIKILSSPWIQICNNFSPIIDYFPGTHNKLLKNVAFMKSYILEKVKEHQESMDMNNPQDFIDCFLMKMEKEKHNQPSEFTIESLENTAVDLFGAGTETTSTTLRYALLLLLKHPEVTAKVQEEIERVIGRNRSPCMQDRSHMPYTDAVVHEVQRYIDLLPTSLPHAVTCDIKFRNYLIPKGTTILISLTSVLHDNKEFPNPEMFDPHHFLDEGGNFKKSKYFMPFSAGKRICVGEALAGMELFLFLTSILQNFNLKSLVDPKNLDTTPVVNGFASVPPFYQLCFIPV
Assay [15] concerns the target Lysosomal acid glucosylceramidase (Homo sapiens, UniProt P04062). Put plainly: Dose response cell-based high throughput screening assay to identify enhancers of beta-glucosidase activity. [Related pubchem assays: 784 ]. The class given is functional.
Assay [16] can be described thus: Luminescence Cell-Based Dose Confirmation HTS to Identify Inhibitors of Platelet Dense Granule Release. [Related pubchem assays: 1663 (Primary HTS), 1678 (Summary of Project)]. In kind it is functional.
Assay [17] can be described thus: inhibition of ADP-Glo detection reagents, dose response, artefact control for CDK5 inhibitor project, biochemical, luminescence, cherry-picked samples, set 2 (AID 504546). In kind it is functional. (In ADP-Glo the light output rises with the ADP produced.)

Lysosomal acid glucosylceramidase, sequence (P04062 whole entry): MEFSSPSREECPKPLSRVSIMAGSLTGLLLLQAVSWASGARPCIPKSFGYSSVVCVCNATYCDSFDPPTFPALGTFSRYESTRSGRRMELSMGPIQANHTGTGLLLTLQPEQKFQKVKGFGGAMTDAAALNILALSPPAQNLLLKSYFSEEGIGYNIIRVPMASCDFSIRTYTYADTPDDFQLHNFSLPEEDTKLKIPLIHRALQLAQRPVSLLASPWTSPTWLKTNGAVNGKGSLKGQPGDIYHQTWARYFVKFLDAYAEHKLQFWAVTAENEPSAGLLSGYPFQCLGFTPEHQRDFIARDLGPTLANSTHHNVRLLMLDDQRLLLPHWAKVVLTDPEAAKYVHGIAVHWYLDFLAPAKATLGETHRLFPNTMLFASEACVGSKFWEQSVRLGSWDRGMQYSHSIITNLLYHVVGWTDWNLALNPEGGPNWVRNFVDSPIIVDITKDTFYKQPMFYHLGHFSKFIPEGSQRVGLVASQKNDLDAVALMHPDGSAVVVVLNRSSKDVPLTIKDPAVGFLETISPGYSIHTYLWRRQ

As to `O=C1C(Br)=C(c2ccccc2)C(c2ccccc2)=C1c1ccccc1`, the IC50 (at Beta-galactosidase [1]; in [3]) was > 66.6 µM (inactive) throughout. In addition, the AC50 in [2] is 4.75 µM (active); in [4], 38.8 µM (active); in [5], 0.46 µM (active).

Consider `CCCCS(=O)(=O)/C=C\C=C/S(=O)(=O)CCCC`, for which the EC50 (in general, the concentration needed to bring the measured effect to its halfway point) on Wee1-like protein kinase is > 49.7 µM (not active); in [8], 3.04 µM (active); in [13], > 5.53 µM (active); at Beta-galactosidase [14], > 40 µM (inactive). Moreover, the IC50 (usually the point on the concentration scale where inhibition reaches its midpoint) is 3.67 µM (active) in assay [6]; 52.6 µM (inactive) in assay [7]; 4.5 µM (active) in assay [9]; 1.28 µM (active) in assay [10]; 13.7 µM (not active) in assay [11]. Further, the values for the CC50 (in the assay on HeLa; in [12]) were 9.43 µM (active) and 3.13 µM (active), respectively. Moreover, in the assay on INS1, the AC50 was 3.25 µM (active).

Regarding `CCCCCCC#Cc1cc(OC)c(OC)cc1C(N1CC(C)c2ccccc21)N1CC(C)c2ccccc21` (stereo not drawn), the AC50 at Cytochrome P450 2D6 was 7.94 µM (inconclusive); on Cytochrome P450 2C19 it was 3.98 µM (inconclusive); at Cytochrome P450 2C9, 3.16 µM (inconclusive).

Turning to `O=C(O)c1ccc2c(c1)C(c1ccccc1)OC2=O` (stereo not drawn), the EC50 in assay [15] is listed as > 10 µM (not active).

Turning to `COc1ccc(C(=O)O/N=C(\N)c2ccccc2)cc1`, the EC50 in assay [16] was 0.921 µM (active). For the same molecule, the AC50 in [17] is 37.7 µM (active).
